Data as given in patent US20090117089A1, “GLYCOLIPIDS AND ANALOGUES THEREOF AS ANTIGENS FOR NK T CELLS” (The Rockefeller University, priority 2005, published 2009).

Tests used:
[1] = system: spleen CD11c+ cells (DCs and NK cells); assay: Cytokine production by DCs after in vivo glycolipid; set-up: species or system mouse; conditions: for IL-12p40, IL-6 and TNF-α from DCs of primed mice: cultured in the presence of αCD40, ELISA and Luminex, data not shown
Protocol: Cytokine production by DCs. After mice were given αGalCer or Compound 24 i.v., CD11c+ cells were isolated with anti-CD11c magnetic beads and cultured 4 h in the presence of Golgistop (from Cytofix/CytoPerm Plus kit; BD Biosciences). Cells were then stained for surface markers (CD11c and DX-5), permeabilized in 100 μl Cytofix/Cytoperm solution using manufacturer's instructions and stained for intracellular cytokines (IFN-γ and IL-12).

[2] = system: human NKT cells (Vα24/Vβ11); assay: Human dendritic cell mediated NKT cell expansion; type: cell-based; conditions: DCs loaded with glycolipid; data not shown
[3] = system: allogeneic C57B1/6 or syngeneic T cells; assay: Stimulation of the mixed leukocyte reaction (MLR) by DCs; type: cell-based, mouse
Protocol: Stimulation of the mixed leukocyte reaction (MLR) by DCs. Spleen DCs were isolated using anti-CD11c magnetic beads 8 h after administration of αGalCer, 24, or PBS. Graded numbers of spleen DCs from BALB/C mice were irradiated and cultured with 2×10^5 allogeneic C57B1/6 or syngeneic T cells, isolated using anti-CD4 coated magnetic beads (Miltenyi Biotech), in a 96-well flat-bottom plate for 88 h. During the final 16 h, ^3H-thymidine (1 μCi/well) was added.

[4] = system: DCs from bone marrow progenitors; assay: Direct DC maturation from bone marrow progenitors in culture; type: cell-based; conditions: data not shown
[5] = system: spleen CD11c+ DCs; assay: DC maturation in vivo (surface markers, flow cytometry); set-up: species or system mouse; conditions: for dose dependence of DC maturation: 2, 0.2, 0.02 and 0.002 μg/mouse; for DC maturation response compared with αCD40 mAb and polyIC: 15 h following i.v. administration; for DC maturation in Jα281−/− mice: mice lacking NKT cells; for phenotypic changes of DC maturation (CD40, CD86, MHC class II, B7-H1, B7-DC up, CD119 down): mouse, in vivo; for induction of splenic DC maturation in vivo: surface activation markers
Protocol: (§1) 2×10^7 irradiated J558-Ld^− cells, were injected i.v. or s.c. into Balb/c mice with or without α-Gal Cer as a DC maturation stimulus. In some experiments we compared α-Gal Cer to agonistic anti-CD40 mAb (1C10, 25 μg i.p.) or the toll like receptor ligands, poly IC ([…], Invivogen) or lipopolysaccharide (20 μgm, Sigma). The mice had been given CFSE-labeled PICTL CD8^+ T cells i.v. 1 d earlier, or were naive animals. In some experiments, mice were sacrificed 3 d later, and T cell division and activation in spleen were analyzed by flow cytometry. Additionally, 7 d or 2 months later, 5×10^6 live J558 tumor cells were inoculated subcutaneously. 5×10^6 Meth A fibrosarcoma was used as a control tumor for challenge. Tumor cell growth was measured with calipers every other day. Mice were scored positive for tumor as soon as tumors became palpable and grew progressively. Mice were euthanized when tumor size exceeded 400 mm^2.
T-cell division, phagocytosis of CFSE-labeled tumor cells and acquisition of cell surface-activation markers were determined by flow cytometry. Briefly, spleens were harvested and low-density splenocytes were stained with CD11c-APC and CD8α-PE, CD11b-PE, B220-PE or CD4-PE for the up-take examination. For in vivo proliferation of P1CTL T-cells, spleens were harvested and the splenocytes suspension was staining with CD8α-Cy, Vα8α-PE, CD25-PE, CD62L-PE. For intracellular cytokine staining, splenocytes were stimulated in vitro with 1 µg/ml P1A peptide in 5 μg/ml brefeldin A (Sigma-Aldrich) at 37° C. for 4 hrs. The cells were first stained with CD8α-Cy-Chrome™, fixed and permeabilized with cytofix-cytoperm buffer (BD Biosciences), and stained with PE conjugated mAbs to IL-2 or IFN-γ.
Flow cytometry. Acquisition of cell surface-activation markers was determined by flow cytometry. […] Spleen CD11c+ DCs were isolated using anti-CD11c magnetic beads and stained with CD11c-FITC, CD8α− allophycocyanin, and PE-Conjugated I-Ad, CD40, CD80, CD86, CD119, B7-H1 and B7-DC. We used a FACSCalibur™ with data analysis in FlowJo (Tree Star).

[6] = system: CD1d reactive T cell hybridomas with an invariant Vα14i T cell antigen receptor; assay: 1.2 hybridoma assay (IL-2 release by ELISA); type: cell-based, mouse
Protocol: As a measure of T cell activation, IL-2 release into the tissue culture medium was measured after 16 hours culture by an ELISA assay.
As a measure of T cell activation, IL-2 and IFN-γ release into the tissue culture medium was measured after 16 hours culture by an ELISA assay.

[7] = system: J558 tumor cells; assay: Tumor protection assay, J558 plasmacytoma; type: in vivo, mouse; conditions: for protection from J558 tumor challenge / tumor growth after single agent alone: challenge 14 days later; for tumor growth after single agent alone: glycolipid alone (2 or 0.2 μg/mouse) or irradiated cells alone; for protective immunity to irradiated tumor injected i.v. (adjuvant comparison): vs αCD40 and poly IC
Protocol: as §1
Mice vaccinated with J558 and α-Gal Cer were injected with ascites containing 1 mg of rat monoclonal anti-CD4 (clone GK 1.5) or anti-CD8 (clone 53-6.72). The mice received three daily injections, the first one i.v. one day before the challenge, and two i.p. injections on the day of the challenge and one day after the challenge. Control mice received 1 mg of Rat IgG (Jackson Laboratories). The depletion was monitored by staining with anti-CD4 and anti-CD8 antibodies followed by flow cytometry (BD PharMingen).
In vivo delivery of dying tumor cells, DC maturation stimuli, and tumor protection assay. Different doses of irradiated J558-Ld− cells were injected i.v. into naïve BALB/c mice either alone or with αGalCer (2 or 0.2 μg/mouse) or 24 (2 or 0.2 μg/mouse) as a DC maturation stimulus. We also compared the glycolipids to agonistic anti-CD40 mAb (1C10, 25 μg, i.p.) or the Toll-like receptor ligands, poly IC (50 μg i.p., Invivogen). 14 d later, 5×10^6 live J558 tumor cells were inoculated s.c. Tumor cell growth was measured with calipers every other day. Mice were scored positive for tumor, as soon as tumors became palpable and grew progressively. Mice were euthanized when tumor size exceeded 400 mm^2.

[8] = 2 μg or 0.2 μg, 2, 6, 12 h in vivo, intracellular staining
[9] = 0.2 μg/mouse with 1×10^7 irradiated J558Ld− tumor cells i.v.
[10] = 2 μg/mouse with 1×10^7 irradiated J558Ld− tumor cells i.v.

Row | Compound | IL-12p40, IL-6 and TNF-α from DCs of primed mice [1] | production of IFNγ, IL-13 and IL-2 by NKT cells [2] | stimulation of allogeneic T cells (allo-MLR) by DCs from treated mice [3] | stimulation of syngeneic T cells (syn-MLR) by DCs from treated mice [3] | direct stimulation of DC maturation [4] | dose dependence of DC maturation [5] | DC maturation response compared with αCD40 mAb and polyIC [5] | surface markers on CD11c+CD8− DCs ([5]; 15 hours after i.v. glycolipid) | DC maturation in Jα281−/− mice [5] | phenotypic changes of DC maturation (CD40, CD86, MHC class II, B7-H1, B7-DC up, CD119 down) [5] | induction of splenic DC maturation in vivo [5] | protection from J558 tumor challenge [7, 9] | protection from J558 tumor challenge [7, 10] | tumor growth after single agent alone [7] | protective immunity to irradiated tumor injected i.v. (adjuvant comparison) [7] | further results
1 | 3-O-sulfo-alpha-galactosylceramide [Compound 24] | significant but comparable amounts of IL-12p40, IL-6 and TNF-α | induced rapid production of IFNγ, IL-13 and IL-2 | equally potent stimulators of the allo-MLR | no stimulatory activity in the syn-MLR | unable to directly stimulate DC maturation from bone marrow progenitors in culture | correlated with the dose of glycolipid administered | paralleled and exceeded those seen with other known stimuli for DC maturation in vivo | induced strong upregulation of CD86, B7-H1 and B7-DC but only slightly upregulated MHC II, CD40 and CD80 | did not mature | induced similar phenotypic changes of maturation | rapid and efficient inducers of splenic DC maturation in vivo | 100% | 100% | grew progressively within 7-10 days | only adjuvant that could independently induce protective immunity | production of IFN-γ by CD11c+DX5+ NK cells, vs. αGalCer [1, 8]: significantly higher; production of IL-12 by CD11c+DX5− DCs, vs. αGalCer [1, 8]: significantly higher; upregulation of activation markers on CD11c+CD8+ DCs ([5]; 15 hours after i.v. glycolipid, 2 or 0.2 μg per mouse): comparable to αGalCer; biological activity in the 1.2 hybridoma assay (IL-2 secretion) [6]: moderately active; mice protected by direct vaccination ([7]; dying tumor cells with compound 24): 80-100%; maturation stimulus compared with ligation of CD40, TLR4 and TLR3 ([7]; irradiated tumor cells i.v.): superior relative to other DC stimuli
2 | CCCCCCCCCCCCCCCCCCCCCCCCCC(=O)N[C@@H](CO[C@H]1O[C@H](CO)[C@H](O)[C@H](O)[C@H]1O)[C@H](O)[C@H](O)CCCCCCCCCCCCCC [α-GalCer, 2S,3S,4R-1-O(α-galactopyranosyl)-2(N-hexacosanoylamino)-1,3,4-octadecanetriol] | significant but comparable amounts of IL-12p40, IL-6 and TNF-α | induced rapid production of IFNγ, IL-13 and IL-2 | equally potent stimulators of the allo-MLR | no stimulatory activity in the syn-MLR | unable to directly stimulate DC maturation from bone marrow progenitors in culture | correlated with the dose of glycolipid administered | paralleled and exceeded those seen with other known stimuli for DC maturation in vivo | induced strong upregulation of CD86, B7-H1 and B7-DC but only slightly upregulated MHC II, CD40 and CD80 | did not mature | induced similar phenotypic changes of maturation | rapid and efficient inducers of splenic DC maturation in vivo | 100% | 100% | grew progressively within 7-10 days | only adjuvant that could independently induce protective immunity | marker expression on DCs that captured dying tumor cells (CD11c+ CFSE+) ([5]; co-injection with irradiated J558− cells i.v.): strongly upregulated the expression of antigen presenting and costimulatory molecules; maturation of total CD11c+ splenic DCs (MHC II, CD80, CD86, B7-H1, B7-DC) ([5]; co-injection with irradiated J558− cells i.v., 5 hours): resulted in the maturation of the total CD11c^+ DC population; IL-2 release from the hybridomas ([6]; 1 μg/ml, CD1d transfected A20 cells): greatest amount of IL-2 release; IL-2 secretion ([6]; CD1d coated plates, Sphingomonas glycolipids and analogues): greater IL-2 secretion; mice fully protected after transfer of CD11c+ DCs ([7]; 1.5×10^6 DCs from donors given dying J558− with α-Gal Cer, 10 of 17 mice): 58%; tumor immunity after depletion of CD4+ or CD8+ T cells ([7]; 8 weeks after vaccination with J558 and α-Gal Cer): significantly abrogated tumor immunity; dependence of vaccination on route ([7]; J558 and α-Gal Cer, i.v. vs s.c.): effective only when tumor cells were injected by the i.v. and not the s.c. route; specificity of protection (J558 vs Meth A challenge) ([7]; dying J558− and α-Gal Cer): protected mice against a challenge of J558 but not Meth A cells; protection against MHC class I positive or negative J558 challenge ([7]; dying MHC class I− J558 cells and α-Gal Cer): protected against the MHC class I^+ J558 cells but not to MHC class F J558 tumor cells; tumor immunity in Jα281−/− mice (lack NKT cells) ([7]; dying cells plus glycolipid): failed to develop immunity; duration of tumor immunity ([7]; single vaccination with irradiated J558 and α-Gal Cer, challenge 2 and 4 months later): long-lived tumor immunity; therapeutic effect ([7]; vaccinated 3 days after injection of live tumor cells): therapeutic response manifest when the tumor dose was 1×10^6 but not 5×10^6 cells; mice protected and tumor-free after J558 challenge ([7]; vaccination with irradiated J558− cells combined with α-Gal Cer i.v., 22 of 25 mice): 88%; protective immunity compared with anti-CD40, LPS and poly IC ([7]; with irradiated J558− cells): more efficient at inducing protective immunity than the other compounds tested; tumor growth after glycolipid alone ([7]; α-Gal Cer alone i.v., challenge 5×10^6 live J558 s.c.): grew progressively within 7-10 days
